The values below come from patent US10953113B2, “Imaging agents and methods of use” (The Board of Regents of the University of Oklahoma, priority 2016, dated 2021).

Data set [1] relates to ISO-induced myocardial injury. Nature of the data set: PET/SPECT imaging in rat model of ISO-induced myocardial damage. The settings on record: for Delineation of ISO-induced myocardial pathology by imaging: control vs ISO-treated rats. It counts as in vivo, Sprague Dawley rats. The protocol: (§1) Male Sprague Dawley rats (250-300 g) were purchased from Harlan (Indianapolis, Ind., USA), housed in regular light/dark cycles and allowed to acclimatize for at least 5 days prior to the experiments. Myocardial injury was induced by administering a sterile aqueous solution of ISO at a dose rate of 150 mg/kg bodyweight. The drug was intraperitoneally injected on two consecutive days.
In addition to the post-injury imaging, baseline images were also acquired before inducing ISO-injury. […] All injections were given intravenously in the tail vein of anesthetized (2% isoflurane-oxygen mixture) rats and imaging was performed at indicated times after the injections. Through the imaging period, anesthesia was maintained with a 2% isoflurane-oxygen mixture. For PET, the rats were positioned supine in a gantry of a PET-CT dual modality machine (Gamma Medica Ideas, Northridge, Calif.). A fly-mode CT of thoracic region was acquired before a 20 min list mode PET data acquisition. SPECT imaging was performed on a NanoSPECT machine (Trifoil Imaging, Chatsworth, Calif.) by helical SPECT acquisition of the thoracic region in 24 frames of 60 seconds each. After imaging, the rats were allowed to wake up and kept in their cage until the time of euthanasia.
The acquired PET images was reconstructed by filtered back projection algorithm and fused with the CT to generate a composite PET-CT image. SPECT acquisitions were reconstructed with HiSPECT reconstruction algorithm provided with the system.
Standard uptake value (SUV) was calculated by defining a three-dimensional region of interest (ROI) around the heart using the CT image. Background was determined by placing a spherical ROI at the same level as the 4th sternebrae in the XY plane in the posterior medial area of the left lung. Mean counts per voxel for the heart were normalized to mean background counts per voxel.

For the next data set, the system named is rats. Nature of the data set: ISO-induced myocardial injury in rats (ECG, cardiac troponin I, corticosterone, TTC staining). The format is in vivo, Sprague Dawley rats. As to the method:
as §1
Lead 1 ECG of isoflurane-anesthetized rats was recorded by placing negative electrode on the right front paw, positive electrode on the left front paw, and ground lead on to the left hind paw. The electrodes were secured to the lead (CB Sciences C-ISO-255), bioamplifier (ETH-225), and analog to digital converter (iWorx 118) and the signal was recorded using Labscribe 2.0 software (iWorx, Dover, N.H.). Before analysis of raw data, the signal was filtered to eliminate 60 Hz mains frequency.
Blood samples were collected before euthanasia and plasma was separated by centrifugation (5,000 rpm for 5 min). We determined the levels of cardiac TnI (cTnI) in plasma by using a rat-specific enzyme-linked immunoassay kit obtained from Life Diagnostics (West Chester, Pa.). The plasma samples were diluted 1:2 with PBS before estimation.
We measured the concentration of stress hormone corticosterone in undiluted plasma by using an ELISA kit from Cayman Chemicals (Ann Arbor, Mich.). Corticosterone is the only glucocorticoid present in rats.
After the final session of imaging and blood sample collection, the rats were euthanized and their hearts were immediately collected and frozen at −20° C. for 2 h. The hearts were sectioned into 2 mm slices and placed in 1% solution of TTC in PBS at 37° C. with intermittent shaking. After 30 min of staining, the TTC was removed and replaced with 10% buffered fomialin overnight.

Data set [2] deals with infarct region in brain (MCAO). Nature of the data set: PET/SPECT imaging in middle cerebral artery occlusion (MCAO) mouse model of brain stroke. The format is in vivo. To be noted: for Uptake in stroke regions: MCAO mouse model, FIG. 13, PET or SPECT. The protocol: Fasted mice are anesthetized with 1.5% isoflurane in a stream of O2:N2 mixture (30:70, 1 L/min) and blanketed in a thermostatic blanket at 37° C. […] The common carotid artery is occluded by a micro-clip. The left ECA is ligated, coagulated, and cut distal to the cranial thyroid artery. A 15 mm monofilament nylon suture (6-0, dia of heat-rounded tip=0.2-0.3 mm) is inserted into the ECA and gently advanced through the ICA until its tip has occluded the origin of the MCA. Correct placement of the suture is indicated by a sudden drop of the local cortical blood flow in the left MCA territory to 10-20% of basal flow. CBF is monitored by non-invasive laser Doppler flowmetry (Moor Instruments). A sustained reduction of >80% is indicative of successful MCAO. The monofilament is secured in place with a ligature and the skin incision is closed. The monofilament suture is left in place for permanent MCAO, but for transient MCAO, the occluding suture is removed after 1 h by anesthetizing the mouse and re-opening the wound.
^18F-FGA was found, in the present work, to accumulate in the brain of a mouse model of brain stroke created by middle cerebral artery occlusion (MCAO). To test ^18F-FGA for imaging infarct in brain, we employed a mouse model of permanent MCAO. PET was performed after 2 h of MCAO surgery. Approximately 1 mCi of ^18F-FGA was injected (i.v.) and a 20 min image was acquired after 1 h of injection. […] We also performed 1 day post-MCAO imaging of brain excised after 2 h of ^18F-FGA injection.

Data set [3] in a line: Biodistribution of ^18F-FGA in normal mice. It counts as in vivo, CD1 mice. The settings on record: for Biodistribution, Blood / Biodistribution, Bone / Biodistribution, Brain / Biodistribution, Heart / Biodistribution, Kidney / Biodistribution, Liver / Biodistribution, Lung / Biodistribution, Muscle / Biodistribution, Spleen: i.v. 0.1 mCi, decay-corrected, mean ± SD. The protocol: All animal work described herein was performed according to the NIH Animal Use and Care Guidelines and was approved by the institutional IACUC. Nine male and three female CD1 mice (20-36 g) were obtained from Harlan Laboratories (Indianapolis, Ind.), and housed in a controlled environment with 12 h day/night cycle. The mice were allowed to acclimatize for at least 1 week before inclusion in the study. On the day of imaging, the animals were anesthetized with 2-3% isoflurane in oxygen stream. Approximately 100 μCi of ^18F-FGA was injected intravenously in the tail vein. The animals were placed in a cage with absorbent padding until biodistribution. Briefly, the mice were euthanized after 1 or 3 hours post injection by an over-dose of isoflurane (4%) followed by cervical dislocation. Various organs were excised, washed with saline, weighed, and appropriate tissue samples were counted in an automated gamma counter (Packard Cobra II Auto Gamma, Perkin Elmer, Boston, Mass.). Total blood volume, bone, and muscle mass were estimated as 5.7%, 10% and 40% of body weight, respectively. A diluted sample of injected ^18F-FGA served as a standard for comparison.
Results of a whole body distribution analysis of ^18F-FGA in various organs of normal mice 1 and 3 h after injection are shown in Table 1. Normal healthy mice were injected with ^18F-FGA (0.1 mCi) via the tail vein and the mice were euthanized at 1 h and 3 h post injection. […] All other organs accumulated less than 0.5% of the injected dose/g tissue. The concentration of ^18F-FGA in circulation was also negligible.
We injected 0.1 mCi (50 μl) of ^18F-FGA in normal healthy mice (n=8), and collected organs for counting at 1 h post-injection. The accumulation in the brain was less than about 0.1% and in all major organs was below 0.5% of the injected dose and it cleared via renal system. […] Rapid clearance and absence of accumulation in healthy cerebral tissue indicated effectiveness of ^18F-FGA for clear infarct imaging.

Data set [4] can be described thus: Circulation kinetics of ^18F-FGA in mice. It counts as in vivo, CD-1 mice. The settings on record: i.v., elimination phase, 30-180 minute time points. The protocol:
Five male CD-1 mice were injected with 100 μCi of ^18F-FGA intravenously via the tail vein. At 0, 30, 60, 90, 120, and 180 minutes post injection, 25-50 μl of blood was sampled from the retro-orbital sinus. Blood was weighed and counted in an automated gamma counter (Packard Cobra II Auto Gamma, Perkin Elmer, Boston, Mass.). One mouse was excluded from the study based on macroscopic observations about the abnormal kidney morphology upon necropsy.
For statistical comparisons we employed GraphPad Prism 6 Software (GraphPad, La Jolla, Calif.). Two group comparisons were performed using a Student's T Test, comparisons between 3 or more groups were done using one way ANOVA. Pharmacokinetic parameters were calculated from the semi-log plot of time-activity curves using method of residuals.
Circulation kinetics of ^18F-FGA was studied over the course of 3 h. As shown in FIG. 6 (left panel), by 30 min, more than 99% of the injected dose was removed from circulation. […] Pharmacokinetic parameters were calculated from the 30-180 minute time points and are presented in tabular form (FIG. 6, right panel).

The mark [5] stands for this setting: normal healthy mice (n=8), 0.1 mCi, 1 h post-injection.
The mark [6] stands for this setting: normal mice, 1 and 3 h after injection.

“Also recorded” adds a separate entry of the source. Bounds are passed on as bounds.

On to `[C-]#[N+]CC(C)(C)OC.[C-]#[N+]CC(C)(C)OC.[C-]#[N+]CC(C)(C)OC.[C-]#[N+]CC(C)(C)OC.[C-]#[N+]CC(C)(C)OC.[C-]#[N+]CC(C)(C)OC.[Tc]` [^99mTc-Sestamibi, ^99mTc-sesta-methoxyisobutylisonitrile, reference compound], for which the “Delineation of ISO-induced myocardial pathology by imaging” value in data set [1] is recorded as “unable to delineate ISO-induced myocardial pathology”.
With `CC(C)NCC(O)c1ccc(O)c(O)c1` (stereo not shown) [ISO, isoproterenol], the “Cardiac troponin in plasma” value in the data set with rats (ISO-treated rats (n=4), 150 mg/kg i.p. on two consecutive days, plasma 24-48 hours after ISO) was 63 pg/mL. Further, the “Plasma level of corticosterone” value with rats (ISO-treated rats (n=6), 150 mg/kg i.p. on two consecutive days) is 34.1 ng/mL. For the same molecule, the “Heart histology (Evans blue, TTC staining)” value with rats (rats, after two consecutive days of ISO injection) was “generalized and extensive necrosis”. Also, in the data set on rats (rats, over the course of ISO treatment), the “ST duration (ECG)” value is “increased”. Also, in the data set on rats (rats, same day of ISO treatment), the “R-R interval (ECG)” value is “significantly decreased”.
As for `C/C(=N\[O-])[C@@H](C)[N-]CC(C)(C)C[N-][C@H](C)/C(C)=N/O.[O]=[99Tc+3]` (racemic) [HMPAO, reference compound], the “Uptake in stroke regions” value in data set [2] was “deficient uptake in stroke regions”.
Regarding `O=C(O)[C@@H](O)[C@@H](O)[C@H](O)[C@@H]([18F])C(=O)O` [^18F-FGA, 2-deoxy-2-[^18F]fluoroglucaric acid], in data set [3] (setting [5]), the “Accumulation in all major organs” value was “below 0.5 % of the injected dose” and the “Accumulation in the brain” value was “less than 0.1 % of the injected dose”. In data set [3] (setting [6]), the “Accumulation in all other organs (other than renal system)” value is listed as “less than 0.5 % of the injected dose/g tissue”, the Concentration in circulation result is recorded as “negligible” and the “Fate of the majority of injected radioactivity” value is “excreted via the renal system”. In addition, in data set [3] (normal mice, 1 hour (n = 8)), the “Biodistribution, Blood” value was 0.145 ± 0.095 % ID/g tissue; the “Biodistribution, Bone” value is 0.321 ± 0.128 % ID/g tissue; the “Biodistribution, Brain” value is 0.039 ± 0.027 % ID/g tissue; the “Biodistribution, Heart” value amounted to 0.056 ± 0.027 % ID/g tissue. In data set [3] (normal mice, 1 hour (n = 8)), the “Biodistribution, Kidney” value was 4.226 ± 3.281 % ID/g tissue; the “Biodistribution, Liver” value amounted to 0.417 ± 0.128 % ID/g tissue; the “Biodistribution, Lung” value worked out at 0.192 ± 0.087 % ID/g tissue; the “Biodistribution, Muscle” value is recorded as 0.049 ± 0.025 % ID/g tissue. The “Biodistribution, Spleen” value in data set [3] (normal mice, 1 hour (n = 8)) came to 0.074 ± 0.036 % ID/g tissue. For the same molecule, in data set [3] (normal mice, 3 hour (n = 4)), the “Biodistribution, Blood” value amounted to 0.051 ± 0.025 % ID/g tissue; the “Biodistribution, Bone” value stood at 0.727 ± 0.773 % ID/g tissue; the “Biodistribution, Brain” value is given as 0.014 ± 0.007 % ID/g tissue; the “Biodistribution, Heart” value came to 0.018 ± 0.01 % ID/g tissue. For the same molecule, in data set [3] (normal mice, 3 hour (n = 4)), the “Biodistribution, Kidney” value was 0.698 ± 0.378 % ID/g tissue; the “Biodistribution, Liver” value is on record as 0.087 ± 0.027 % ID/g tissue; the “Biodistribution, Lung” value came out at 0.104 ± 0.073 % ID/g tissue; the “Biodistribution, Muscle” value is recorded as 0.03 ± 0.018 % ID/g tissue. Moreover, in data set [3] (normal mice, 3 hour (n = 4)), the “Biodistribution, Spleen” value is reported as 0.033 ± 0.015 % ID/g tissue. In addition, in data set [4], the Elimination rate constant was found to be 0.83 h⁻¹ and the Half-life entry was “approximately 35 minutes”. Besides, the “Accumulation in cardiac tissue of ISO-treated rats” value in data set [1] (PET, 1 h post-injection, after two consecutive days of ISO) is “accumulated large amounts”. Besides, the “Time to accumulation in ISO-treated hearts” value in data set [1] (PET, ISO-treated rats) is given as no more than 1 h. In data set [1] (PET, ISO-treated rats, 4 h post-injection), the “Contrast between accumulation in myocardial tissue and non-target tissues” value was “very pronounced”. Further, the “Uptake in normal (baseline/control) heart” value in data set [1] (PET, rats without ISO treatment) is given as “negligible uptake; also recorded: no detectable signal”. For the same molecule, in data set [1], the “Delineation of ISO-induced myocardial pathology by imaging” value is “clearly diagnosed ISO-induced cardiomyopathy”. Also, the “Ipsilateral vs contralateral accumulation in excised brain” value in data set [2] (1 day post-MCAO, brain excised 2 h after injection) was “higher accumulation in the ipsilateral side than the contralateral side”. The “Uptake in stroke regions” value in data set [2] was “accumulates in stroke regions of ipsilateral cerebral hemisphere”. Further, the “Accumulation in ipsilateral side of brain” value in data set [2] (permanent MCAO, PET after 2 h of MCAO, 1 mCi i.v., image 1 h after injection) is “central area of ^18F-FGA accumulation”.
